Measured values from publication PMC9382192, “Combined treatment with epigenetic agents enhances anti-tumor activity of MAGE-D4 peptide-specific T cells by upregulating the MAGE-D4 expression in glioma” (Frontiers in Oncology, 2022).

Columns and labels:
MAGE-D4 = MAGE-D4 expression (qRT-PCR, Western blot) in U87; type: cell-based, human; details: U87, compared to the control (0.09% DMSO); 1 μM TSA 24 h
Method: The human glioma cell lines (U87-MG and U251) were obtained from the Cell Bank of Type Culture Collection of the Chinese Academy of Science (Shanghai, China). […] A3656), valproic acid (VPA, CAS No. 99-66-1), and trichostatin A (TSA, CAS No. 58880-19-6) were purchased from Sigma-Aldrich Corporation (St. Louis, MO, USA). DAC and TSA were dissolved in DMSO to a concentration of 10 mM. Aliquots were stored at -80°C and diluted with media before being used. Drug treatments were divided into seven groups: (1) DAC group: cells were cultured in medium on the presence of 1 μM DAC for 120 h; (2) VPA group: cells were grown in medium containing 1 mM VPA for 120 h; (3) TSA group: cells were cultured in medium supplemented with 1 μM TSA for 24 h; (4) D + V group: cells were cultured with 1 μM DAC and 1 mM VPA for 120 h; (5) D + T group: cells were cultured with 1 μM DAC for 120 h, followed by 1 μM TSA for 24 h; (6) Control group: cells were cultured with 0.09% DMSO, which is the highest concentration of DMSO used in this study in consideration of the potential toxicity of DMSO to living cells. […] Relative intensities of the bands were normalized with GAPDH and analyzed by ImageJ (NIH, Maryland, USA).

T cells = assay: CFSE lymphocyte proliferation assay; type: cell-based, human; details: T cells with peptide-pulsed DCs, 96 h, flow cytometry
Method: CFSE assay was used to further detect the proliferation of T cells stimulated by peptide-pulsed DCs. The cells were suspended at 10^6/ml with RPMI1640 and added CFSE (5 μM/ml), then incubated at room temperature for 20 min. Fetal bovine serum (FBS, Gbico, USA) was added and incubated for 5 min to terminate the reaction, washed with PBS twice. Then, the peptide-incubated DC was added, incubated for 96 h, and performed flow cytometry analysis.

With `CC(/C=C/C(=O)NO)=C\[C@@H](C)C(=O)c1ccc(N(C)C)cc1` [TSA, trichostatin A] the “MAGE-D4 mRNA and protein expression” value (MAGE-D4) was “higher”.
In the case of CLPPPNVIL [Peptide P8], the “proliferation index (CFSE)” value (T cells; Figure 4B inset bottom left) is reported as “highest” and the “percentage of cells that divided at least once (CFSE)” value (T cells; Figure 4B inset top left) is reported as “highest”.
